ChEMBL document CHEMBL1201862, “PubChem BioAssay data set” (2004)
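Assay format: 96-well plates, 48-hour exposure. At the GI50, growth is halved.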 The source made the active and inactive calls. Rule as the data show it: active = GI50 up to about 1.1 µM and inactive = higher.

What was measured:
Test in all cases: growth of human tumour cells (NCI), 48 h
HL-60 = tested on: HL-60
SF-268 = tested on: SF-268
SF-295 = tested on: SF-295
KM12 = tested on: KM12
OVCAR-8 = tested on: OVCAR-8
CCRF-CEM = tested on: CCRF-CEM
HT-29 = tested on: HT-29
EKVX = tested on: EKVX
Malme-3M = tested on: Malme-3M
SF-539 = tested on: SF-539
HCT-15 = tested on: HCT-15
ACHN = tested on: ACHN
IGROV-1 = tested on: IGROV-1
SW-620 = tested on: SW-620
OVCAR-4 = tested on: OVCAR-4
SK-OV-3 = tested on: SK-OV-3
RPMI-8226 = tested on: RPMI-8226
HCT-116 = tested on: HCT-116
M14 = tested on: M14
UO-31 = tested on: UO-31

SMILES | GI50 (HL-60) | GI50 (SF-268) | GI50 (SF-295) | GI50 (KM12) | GI50 (OVCAR-8) | GI50 (CCRF-CEM) | GI50 (HT-29) | GI50 (EKVX) | GI50 (Malme-3M) | GI50 (SF-539) | GI50 (HCT-15) | GI50 (ACHN) | GI50 (IGROV-1) | GI50 (SW-620) | GI50 (OVCAR-4) | GI50 (SK-OV-3) | GI50 (RPMI-8226) | GI50 (HCT-116) | GI50 (M14) | GI50 (UO-31)
O=C1Nc2ccccc2Cn2c1cc1oc(-c3ccccc3)cc12 | > 100 µM (inactive) | 24 µM (inactive) | 17.7 µM (inactive) | 95.1 µM (inactive) | 31 µM (inactive) | > 100 µM (inactive) | > 100 µM (inactive) | 33.7 µM (inactive) | 30.3 µM (inactive) | 29.7 µM (inactive) | 88.9 µM | 37.2 µM (inactive) | 29.8 µM (inactive) | > 100 µM (inactive) | 28.8 µM (inactive) | 28 µM (inactive) | – | – | – | –
C=CCc1cccc(C(=O)/C=C(O)/C=C/c2ccccc2Cl)c1O | – | 20.5 µM (inactive) | 9.27 µM (inactive) | 17.2 µM (inactive) | 6.04 µM (inactive) | 6.82 µM (inactive) | 9.93 µM (inactive) | 29.5 µM (inactive) | – | 7.43 µM (inactive) | 8.39 µM | 23.3 µM (inactive) | 0.352 µM (active) | 8.43 µM (inactive) | – | 23.6 µM (inactive) | 6.67 µM (inactive) | 7.29 µM (inactive) | 24.5 µM (inactive) | 9.18 µM (inactive)
O=C1c2cc(Cl)ccc2-n2cnnc2C2CSCN12 (stereo not drawn) | – | > 100 µM (inactive) | > 100 µM (inactive) | > 100 µM (inactive) | > 100 µM (inactive) | > 100 µM (inactive) | > 100 µM (inactive) | > 100 µM (inactive) | > 100 µM (inactive) | – | > 100 µM | > 100 µM (inactive) | > 100 µM (inactive) | > 100 µM (inactive) | > 100 µM (inactive) | > 100 µM (inactive) | > 100 µM (inactive) | > 100 µM (inactive) | > 100 µM (inactive) | > 100 µM (inactive)
c1ccc(-c2cs[s+]c2)cc1 | 41.9 µM (inactive) | > 100 µM (inactive) | > 100 µM (inactive) | > 100 µM (inactive) | > 100 µM (inactive) | 22.9 µM (inactive) | > 100 µM (inactive) | > 100 µM (inactive) | > 100 µM (inactive) | – | 40.8 µM | > 100 µM (inactive) | > 100 µM (inactive) | 49.5 µM (inactive) | > 100 µM (inactive) | > 100 µM (inactive) | – | > 100 µM (inactive) | > 100 µM (inactive) | > 100 µM (inactive)
CCn1c2ccccc2c2c(-c3ccccc3)cc3c(c21)C(=O)N(c1ccccc1)C3=O | > 100 µM (inactive) | 76.6 µM (inactive) | > 100 µM (inactive) | > 100 µM (inactive) | > 100 µM (inactive) | > 100 µM (inactive) | – | > 100 µM (inactive) | > 100 µM (inactive) | > 100 µM (inactive) | > 100 µM | 99.8 µM (inactive) | > 100 µM (inactive) | > 100 µM (inactive) | > 100 µM (inactive) | > 100 µM (inactive) | – | 95.5 µM (inactive) | > 100 µM (inactive) | > 100 µM (inactive)
CCCCCCOc1ccc(NC2=C(Cl)C(=O)c3ncccc3C2=O)cc1 | – | 1.97 µM (inactive) | 1.96 µM (inactive) | 1.33 µM (inactive) | 3.43 µM (inactive) | 1.21 µM (inactive) | 3.87 µM (inactive) | > 10 µM (inactive) | 1.91 µM (inactive) | 1.72 µM (inactive) | 2.02 µM | > 10 µM (inactive) | 2.77 µM (inactive) | 1.83 µM (inactive) | – | > 10 µM (inactive) | – | 1.16 µM (inactive) | 1.88 µM (inactive) | 1.39 µM (inactive)
O=c1[nH]c(=O)n(C2CC(O)C(CO)O2)cc1OCC1CCCCC1 (stereo not drawn) | > 100 µM (inactive) | > 100 µM (inactive) | > 100 µM (inactive) | > 100 µM (inactive) | > 100 µM (inactive) | > 100 µM (inactive) | > 100 µM (inactive) | > 100 µM (inactive) | > 100 µM (inactive) | – | > 100 µM | > 100 µM (inactive) | > 100 µM (inactive) | – | > 100 µM (inactive) | > 100 µM (inactive) | – | > 100 µM (inactive) | > 100 µM (inactive) | > 100 µM (inactive)
CC(Nc1cc(=O)n(C)c(=O)[nH]1)c1ccccc1 (stereo not drawn) | > 100 µM (inactive) | > 100 µM (inactive) | > 100 µM (inactive) | > 100 µM (inactive) | > 100 µM (inactive) | > 100 µM (inactive) | > 100 µM (inactive) | > 100 µM (inactive) | – | > 100 µM (inactive) | > 100 µM | > 100 µM (inactive) | > 100 µM (inactive) | > 100 µM (inactive) | > 100 µM (inactive) | – | – | > 100 µM (inactive) | > 100 µM (inactive) | > 100 µM (inactive)
